The structures appear in SMILES notation.

Data set [1] relates to photoreceptor precursor cells (PPCs). The data set can be described thus: MTT assay of cultured PPCs treated with increasing amounts of PGE2. The format is cell-based, human. The note with it: PPCs cultured 48 hours with increasing PGE2, up to 50 μM; n=4. How it is done: (§1) FIG. 2 illustrates that AAGP™ reduces the amount of prostaglandin E2 (PGE2) secreted by degenerating explants and the level of COX-2 expression. PGE2 is toxic to photoreceptor precursor cells (PPCs). (A) Rat retinal explants were cultured in explant medium with or without 4 mg/ml AAGP (n=3 for each condition). Explant media was replaced after 24 hours and replenished every other day with medium not containing AAGP. After ten days, explant medium was collected and processed for PGE2 ELISA. Histograms represent the amount of PGE2 (pg/ml) present in the explant medium. (B) COX-2 expression was assessed by RT-qPCR in stressed ARPE-19 cells in the presence or absence of 4 mg/ml AAGP (n=4). Histograms represent fold change in COX-2 expression, normalized to GAPDH. […]
Firstly, the amount of PGE2 produced is determined within the ex vivo system under normal culture conditions and after media is supplemented with 4 mg/ml AAGP for the first 24 hours of co-culture. Three equal-sized retinal quadrants, measuring ˜10 mm^2 each, and are analyzed for each condition. Explant media are collected at the end of 10 days and assessed for concentration of PGE2 by enzyme-linked immunosorbent assay (ELISA; R&D Systems). PGE2 induced reduction in metabolic activity, contributing to cell death, is assessed in PPCs cultured in isolation using a Thiazolyl Blue Tetrazolium Bromide (MTT) assay (Sigma). […]

Data set [2] concerns COX-2 expression in stressed ARPE-19 cells. Put plainly: COX-2 expression by RT-qPCR in ARPE-19 cell stress assay (IL-1β followed by ATP). The format is cell-based, human. As to conditions: stressed ARPE-19 cells (17 ng/ml IL-1β 8 h, then 5 mM ATP 1 h) in presence of 4 mg/ml AAGP; normalized to GAPDH; n=4. How it is done:
as §1, with “GAPDH. (C) Cultured PPCs were treated with increasing amounts of PGE2 for 48 hours, followed by the MTT assay (n=4).” for “GAPDH.”
To determine whether AAGP™ inhibits COX-2 expression, ARPE-19 cells (Dunn et al., 1996) are treated with 17 ng/ml Interleukin 1β (IL-1β; Sigma; Lukiw et al., 2006) for 8 hours and then added 5 mM ATP for 1 hour to further induce cell stress (Sigma; Mehta et al., 2001). […] COX-2 expression is assessed using Reverse Transcription Quantitative Polymerase Chain Reaction (RT-qPCR) with the TaqMan® primer/probe system, Fast Advanced Master Mix and the ViiA™ 7 Real Time PCR system (Applied Biosystems). […]
In general terms: In qPCR the cycle at which signal appears reflects the starting amount.

The subject of data set [3] is prostaglandin E2 (PGE2) secreted by degenerating retinal explants. Put plainly: PGE2 ELISA of explant medium from ex vivo retinal explant/RPE co-culture. As to conditions: 4 mg/ml AAGP present for the first day, medium collected after 10 days of co-culture; n=3; p<0.05; without AAGP ~20 pg/ml. The format is cell-based, rat. How it is done: as §1
Firstly, the amount of PGE2 produced is determined within the ex vivo system under normal culture conditions and after media is supplemented with 4 mg/ml AAGP for the first 24 hours of co-culture. Three equal-sized retinal quadrants, measuring ˜10 mm^2 each, and are analyzed for each condition. Explant media are collected at the end of 10 days and assessed for concentration of PGE2 by enzyme-linked immunosorbent assay (ELISA; R&D Systems). PGE2 induced reduction in metabolic activity, contributing to cell death, is assessed in PPCs cultured in isolation using a Thiazolyl Blue Tetrazolium Bromide (MTT) assay (Sigma).

The next data set concerns PPCs. Put plainly: Toxicity of AAGP to PPCs (unpublished data). It counts as cell-based, human. The note with it: 4 mg/ml. How it is done: Now referring to FIG. 1, within the ex vivo system, rat neurosensory retinal explants are incubated upon human embryonic stem cells (hESC) derived retinal pigment epithelium (RPE). Neurosensory retina was obtained from the S334ter-4 model of retinal degeneration (Chen et al, 1995) and cultured within the system for 10 days (for detailed experimental design see Yanai et al., 2015). Rodent retinal tissue collection was carried out with approval of the Animal Care Committee at the University of British Columbia and in accordance with the Association for Research in Vision and Ophthalmology Statement for the Use of Animals in Ophthalmic and Vision Research. Throughout the present study, AAGP™ was used at 4 mg/ml, after it was confirmed it was not toxic to PPCs at this concentration (unpublished data).

The test system of data set [4] is photoreceptor precursor cells (PPCs). The data set can be described thus: PPC survival in ex vivo co-culture system, viable labelled PPCs counted by FACS. The format is cell-based, human. As to conditions: PPCs pre-treated 24 hours with 4 mg/ml AAGP, 10 days of co-culture. How it is done: FIG. 3 illustrates that Cell survival is enhanced by pre-incubation with AAGP™. Untreated or AAGP™-treated PPCs are fluorescently labelled and placed between retinal explants and RPE for ten days (n=4). Live PPCs are separated by Fluorescence-Activated Cell Sorting and the proportion of cells surviving after 10 days of co-culture was calculated. Percent cell survival of untreated and AAGP-treated PPCs was plotted ( ? ) and for each condition the average±SEM is represented by a thick black line.
To determine whether AAGP™ improves PPC survival in the ex vivo system, PPC cell viability is assessed with and without pre-treating cell grafts with AAGP™ for 24 hours prior to inclusion within the ex vivo system. PPCs are labelled with 20 μM CellTrace™ Far Red DDAO-SE (Life Technologies). […] After 10 days, the components of the co-culture system are enzymatically dissociated into single cell suspensions and the number of viable PPCs is assessed by Fluorescence-Activated Cell Sorting (FACS; Influx Sorter; BD Biosciences).
Finally, the viability of PPCs in the ex vivo system is tested. […] Ten days later, the co-cultured components were dissociated into single cells and viable PPCs (labeled red) were separated by Fluorescence activated cell sorting (FACS, FIG. 3). The proportion of live cells remaining after 10 days of co-culture is calculated. […]
(In general: Flow cytometry measures light scatter and fluorescence of single cells or particles in a stream.)

For the compound `CCCCC[C@H](O)/C=C/[C@H]1[C@H](O)CC(=O)[C@@H]1C/C=C\CCCC(=O)O` [PGE2, prostaglandin E2], the “reduction of cell survival (MTT)” value in data set [1] is on record as “up to 44%”.

For `C[C@H](NC(=O)[C@H](C)NC(=O)[C@@H](N)CCCCNC(=O)C(F)(F)C1(O)O[C@H](CO)[C@H](O)[C@H](O)[C@H]1O)C(=O)O` (some centres unmarked) [AAGP™], the “decline in COX-2 expression” value in data set [2] is given as “at least 13.3±4.5 fold”. The “amount of PGE2 in explant medium” value in data set [3] was roughly 7.5 pg/mL. For the same compound, the “toxicity to PPCs” value with PPCs is given as “not toxic”. In data set [4], the “increase in average cell viability vs. untreated PPCs” value is reported as roughly 3 fold.
